Assay results published in US10597388B2, “Pyridazinone herbicides” (FMC CORPORATION, priority 2014, dated 2020).

Experiments:
Experiment in all cases: Test D controlled growth environment herbicide test, pre- and postemergence
Type in all cases: in vivo
[1] = system: wheat, winter (winter wheat, Triticum aestivum)
In short: (§1)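 Rating is visual, 0–100 scale (100 = complete control), made against untreated plants 14–21 d after treatment in controlled growth conditions. Postemergence sprays went onto 1- to 4-leaf plants in peat medium; preemergence sprays onto silt loam after sowing; formulation included a surfactant.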

[2] = system: pigweed (Amaranthus retroflexus)
In short: as §1

[3] = system: field violet (Viola arvensis)
In short: as §1

[4] = system: deadnettle (henbit deadnettle, Lamium amplexicaule)
In short: as §1

[5] = system: oilseed rape (Brassica napus)
In short: as §1

[6] = system: chickweed (common chickweed, Stellaria media)
In short: as §1

[7] = system: blackgrass (Alopecurus myosuroides)
In short: as §1

[8] = system: wheat, spring (spring wheat, Triticum aestivum)
In short: as §1

[9] = system: field poppy (Papaver rhoeas)
In short: as §1

[10] = system: ryegrass, Italian (Italian ryegrass, Lolium multiflorum)
In short: as §1

[11] = system: windgrass (Apera spica-venti)
In short: as §1

[12] = system: radish, wild (wild radish, Raphanus raphanistrum)
In short: as §1

[13] = system: Russian thistle (Salsola kali)
In short: as §1

[14] = Postemergence, 31 g ai/ha, scale 0 to 100 (0 no effect, 100 complete control)
[15] = Postemergence, 125 g ai/ha, visual rating on scale 0 (no effect) to 100 (complete control), 14 to 21 d
[16] = Postemergence, 250 g ai/ha, scale 0 to 100 (0 no effect, 100 complete control)
[17] = Preemergence, 125 g ai/ha, scale 0 to 100 (0 no effect, 100 complete control)
[18] = Preemergence, 250 g ai/ha, scale 0 to 100 (0 no effect, 100 complete control)
[19] = postemergence, 62 g ai/ha, scale 0 to 100, 0 no effect, 100 complete control

Cc1nn(C)c(=O)c(-c2c(C)sc3ccc(Cl)cc23)c1O [Compound 104]
98: Plant response rating, Field Violet [3, 16]
85: Field Violet plant response rating [3, 14] | Plant response rating, Deadnettle [4, 16] | Plant response rating, Windgrass [11, 15] | Plant response rating, Windgrass [11, 16] | Plant response rating, Russian Thistle [13, 16]
80: Plant response rating (scale of 0 to 100), Deadnettle ([4]; Preemergence, 62 g ai/ha) | Plant response rating, Deadnettle [4, 17] | Plant response rating, Field Poppy [9, 16] | Plant response rating, Windgrass [11, 17]
20: Plant response rating, Wheat, Winter [1, 15] | Plant response rating (scale of 0 to 100), Oilseed Rape ([5]; Preemergence, 62 g ai/ha) | Plant response rating, Wheat, Spring [8, 15]
0: Plant response rating (scale of 0 to 100), Wheat, Winter ([1]; Preemergence, 31 g ai/ha) | Plant response rating (scale of 0 to 100), Wheat, Winter ([1]; Preemergence, 62 g ai/ha) | Plant response rating (scale of 0 to 100), Wheat, Spring ([8]; Preemergence, 31 g ai/ha) | Plant response rating (scale of 0 to 100), Field Poppy ([9]; Preemergence, 31 g ai/ha) | Plant response rating (scale of 0 to 100), Russian Thistle ([13]; Preemergence, 31 g ai/ha)
100: Pigweed plant response rating [2, 14] | Plant response rating, Pigweed [2, 15] | Plant response rating, Pigweed [2, 16] | Plant response rating (scale of 0 to 100), Pigweed ([2]; Preemergence, 62 g ai/ha) | Plant response rating, Pigweed [2, 17] | Plant response rating, Pigweed [2, 18] | Plant response rating, Pigweed [2, 19] | Plant response rating (scale of 0 to 100), Field Violet ([3]; Preemergence, 31 g ai/ha) | Plant response rating (scale of 0 to 100), Field Violet ([3]; Preemergence, 62 g ai/ha) | Plant response rating, Field Violet [3, 18] | Plant response rating, Deadnettle [4, 18] | Plant response rating, Chickweed [6, 15] | Plant response rating, Chickweed [6, 16] | Plant response rating (scale of 0 to 100), Chickweed ([6]; Preemergence, 31 g ai/ha) | Plant response rating (scale of 0 to 100), Chickweed ([6]; Preemergence, 62 g ai/ha) | Plant response rating, Chickweed [6, 18] | Plant response rating, Chickweed [6, 19] | Plant response rating (scale of 0 to 100), Field Poppy ([9]; Preemergence, 62 g ai/ha) | Plant response rating, Field Poppy [9, 17] | Plant response rating, Field Poppy [9, 18] | Plant response rating (scale of 0 to 100), Ryegrass, Italian ([10]; Preemergence, 31 g ai/ha) | Plant response rating (scale of 0 to 100), Ryegrass, Italian ([10]; Preemergence, 62 g ai/ha) | Plant response rating, Ryegrass, Italian [10, 17] | Plant response rating, Ryegrass, Italian [10, 18] | Plant response rating, Windgrass [11, 18] | Plant response rating (scale of 0 to 100), Radish, Wild ([12]; Preemergence, 62 g ai/ha) | Plant response rating, Radish, Wild [12, 18]
5: Wheat, Winter plant response rating [1, 14] | Plant response rating, Wheat, Winter [1, 17]
30: Plant response rating, Wheat, Spring [8, 16]
40: Plant response rating, Blackgrass [7, 19]
25: Plant response rating, Wheat, Winter [1, 16] | Plant response rating (scale of 0 to 100), Blackgrass ([7]; Preemergence, 31 g ai/ha)
45: Deadnettle plant response rating [4, 14] | Plant response rating, Wheat, Spring [8, 18]
95: Plant response rating, Field Violet [3, 15] | Plant response rating, Field Violet [3, 17] | Plant response rating, Oilseed Rape [5, 16] | Chickweed plant response rating [6, 14] | Plant response rating, Chickweed [6, 17] | Plant response rating, Ryegrass, Italian [10, 15] | Plant response rating, Ryegrass, Italian [10, 16] | Plant response rating, Ryegrass, Italian [10, 19] | Plant response rating, Radish, Wild [12, 16] | Plant response rating (scale of 0 to 100), Radish, Wild ([12]; Preemergence, 31 g ai/ha) | Plant response rating, Radish, Wild [12, 17]
65: Plant response rating (scale of 0 to 100), Deadnettle ([4]; Preemergence, 31 g ai/ha) | Plant response rating, Blackgrass [7, 15] | Plant response rating, Blackgrass [7, 17] | Plant response rating, Field Poppy [9, 19] | Plant response rating, Russian Thistle [13, 15]
75: Plant response rating, Oilseed Rape [5, 19] | Plant response rating, Blackgrass [7, 18] | Plant response rating, Field Poppy [9, 15] | Plant response rating (scale of 0 to 100), Windgrass ([11]; Preemergence, 62 g ai/ha) | Plant response rating, Windgrass [11, 19] | Plant response rating, Radish, Wild [12, 19] | Plant response rating, Russian Thistle [13, 18]
10: Wheat, Spring plant response rating [8, 14] | Plant response rating (scale of 0 to 100), Russian Thistle ([13]; Preemergence, 62 g ai/ha)
90: Plant response rating, Field Violet [3, 19] | Plant response rating, Oilseed Rape [5, 15] | Ryegrass, Italian plant response rating [10, 14] | Plant response rating, Radish, Wild [12, 15]
35: Blackgrass plant response rating [7, 14] | Plant response rating, Wheat, Spring [8, 17]
50: Plant response rating, Deadnettle [4, 19]
60: Plant response rating (scale of 0 to 100), Pigweed ([2]; Preemergence, 31 g ai/ha) | Plant response rating, Blackgrass ([7]; Preemergence, 62 g ai/ha, scale 0 to 100 (0 no effect, 100 complete control)) | Plant response rating, Russian Thistle [13, 19]
55: Plant response rating, Oilseed Rape [5, 17] | Plant response rating, Oilseed Rape [5, 18] | Windgrass plant response rating [11, 14] | Russian Thistle plant response rating [13, 14] | Plant response rating, Russian Thistle [13, 17]
70: Plant response rating, Deadnettle [4, 15] | Oilseed Rape plant response rating [5, 14] | Plant response rating, Blackgrass [7, 16] | Plant response rating (scale of 0 to 100), Windgrass ([11]; Preemergence, 31 g ai/ha) | Radish, Wild plant response rating [12, 14]
15: Plant response rating, Wheat, Winter [1, 18] | Plant response rating, Wheat, Winter [1, 19] | Plant response rating (scale of 0 to 100), Oilseed Rape ([5]; Preemergence, 31 g ai/ha) | Plant response rating (scale of 0 to 100), Wheat, Spring ([8]; Preemergence, 62 g ai/ha) | Plant response rating, Wheat, Spring [8, 19] | Field Poppy plant response rating [9, 14]
